The values below are quoted from earlier work in patent US20210069098A1, “RIBAVIRIN […] COMPOSITION FOR TREATING VIRAL DISEASES” (MT RESEARCH, LLC, priority 2009, published 2021).

Like-named read-outs stand apart in the source and are kept apart here.

The conditions of data set [1]: PLV.
For data set [2] the following is noted: nebulized neat perflubron.

`FC(F)(F)C(F)(F)C(F)(F)C(F)(F)C(F)(F)C(F)(F)C(F)(F)C(F)(F)Br` [perflubron]: the “reduction in ventilator days or mortality” value in data set [1] (low dose 10 mL/kg or high dose 20 mL/kg) is “failed to demonstrate a reduction in ventilator days or mortality”. Further, the complications result in data set [1] (low dose or high dose, hypotension, hypoxemia and pneumothorax) is “more complications”. Also, the gas exchange entry in data set [2] is given as “efficacy for gas exchange”.

For the compound `CC(=O)N[C@@H](CS)C(=O)O` [N-acetylcysteine (NAC), N-acetylcysteine], in the data set with Influenza (in vivo), the survival entry was “improve survival”.

With “superoxide dismutase [superoxide dismutase (SOD)]”, the survival result in the data set with Influenza ([…]) was “improve survival”.
